Experimental data from publication PMC12251549, “Engineering a Radiohybrid PSMA Ligand with an Albumin-Binding Moiety and Pharmacokinetic Modulation via an Albumin-Binding Competitor for Radiotheranostics” (Molecules, 2025).

What was measured:
[1] = Biodistribution after intravenous co-injection of [125I]5 and [211At]6 (Table S2); type: in vivo, normal mice (ddY); settings: normal mice
Protocol: [^67Ga]Ga-PSMA-617 (37 kBq) and [^125I]5 (37 kBq) or [^125I]5 (37 kBq) and [^211At]6 (37 kBq) were intravenously co-administered into three or four normal mice at each timepoint (6 weeks male ddY mice, 28–30 g, Japan SLC, Inc., Hamamatsu, Japan). Mice were sacrificed at 10 min, 1 h, 4 h, and 24 h ([^67Ga]Ga-PSMA-617 and [^125I]5) or at 10 min, 1 h, 4 h, 12 h, and 24 h ([^125I]5 and [^211At]6) postinjection of the radiolabeled compounds. Tissues of interest were removed and weighed, and the radioactivity of ^67Ga and ^125I and ^125I and ^211At were determined with an auto well gamma counter (ARC-8001) and corrected for background radiation as described in the Cellular Uptake Experiments Section. To determine the amount and routes of the radioactivity excreted from the body for 24 h after the injection of radiolabeled compounds, mice were housed in metabolic cages (METABOLICA, SUGIYAMA-GEN Co., Ltd., Tokyo, Japan). Data are shown as the percentage of injected dose per gram of tissues (%ID/g) or %ID.

[2] = tested on: PSMA-expressing LNCaP cells; experiment: Cellular uptake and internalization in LNCaP cells, blocking with 2-PMPA; type: cell-based; settings: 2-PMPA 100 µM
Protocol: Cellular uptake experiments were performed according to a previous report with slight modifications. LNCaP cells expressing PSMA were cultured in RPMI 1640 medium containing 10% fetal bovine serum (FBS) and 1% penicillin–streptomycin on 6-well culture plates (containing 5 × 10^5 cells/well) for 24 h in a humidified atmosphere (5% CO2) incubator at 37 °C. After removing the medium and washing with phosphate-buffered saline (PBS) (−) once, a mixed solution of [^125I]5 and [^211At]6, [^125I]5 and [^67Ga]Ga-PSMA-617, and [^125I]5 and [^67Ga]5 in 1.0 mL of medium without FBS was added (3.7 kBq/each tracer/well). The final concentrations of the radioligands for [^125I]5, [^211At]6, and [^67Ga]5 were 45.5 pM, 0.2 pM, and 2.5 pM, respectively. These solutions containing radioligands were diluted in saline containing 0.05% (w/v) bovine serum albumin (BSA) to prevent adsorption to tubes or plates and further diluted with medium to 0.00125% as the final BSA concentration. After incubation for 10, 60, and 120 min, the medium from each well was removed, and the cells were washed twice with ice-cold PBS (−); the surface of the cells was washed twice with ice-cold 0.2 M glycine buffer (pH 3.0). The cells were lysed using a 1 M NaOH aqueous solution. The radioactivity of ^67Ga,^125I and ^211At in the 1 M NaOH aqueous solution was determined and defined as the internalized radioligand fraction using an auto well gamma counter (ARC-8001, Hitachi, Ltd., Tokyo, Japan) according to a previous paper. The radioactivity was determined with an auto well gamma counter and corrected for background radiation and physical decay during counting. A window from 16 to 69 keV was used for counting ^125I, and a window from 70 to 120 keV was used for counting ^211At. Correlation factors to eliminate any crossover of ^125I activity in the ^211At counts were determined by measuring the ^125I standard in each window. More than one week after the experiments, the radioactivity counts of ^125I were measured after the decay of ^211At. The protein amount in cells was quantified using a BCA Protein Assay Kit (Nacalai Tesque, Kyoto, Japan) according to the manufacturer’s protocol. All data were expressed as percent dose per milligram protein (%dose/mg protein). In blocking experiments, a selective inhibitor of the PSMA, (2S)-2-(phosphonomethyl)pentanedioic acid (2-PMPA) (final concentration 100 µM), was added to each well with tracers. After incubation for 10, 60, and 120 min, radioactivity and protein concentration were determined in the same manner as the experiment without the blocking agent.

[3] = Biodistribution with post-administration of albumin-binding competitor IPBA; type: in vivo, normal mice (ddY); settings: normal mice, IPBA at 1 h postinjection, 10 molar equivalent of blood albumin; except in the kidney
Protocol: To evaluate the effects of an albumin-binding competitor (sodium salt of IPBA) in normal mice, [^125I]5 and [^211At]6 were intravenously co-administered. At 1 h postinjection of the radiolabeled compounds, IPBA (3.4 mg, 11 µmol) dissolved in saline at a 10 molar equivalent of blood albumin was administered. Mice were sacrificed at 65 min, 70 min, 2 h, 4 h, 12 h, and 24 h postinjection of [^125I]5 and [^211At]6. Tissues of interest were treated, and the radioactivity was measured in the same manner as above. Data are also shown as %ID/g or %ID.

[4] = In vitro stability test in 0.1 M phosphate buffer; type: physicochemical; settings: 0.1 M PB solution containing 10% ethanol, 37 °C, 24 h, mean ± SD for three samples
Protocol: samples were analyzed by RP-HPLC using a Cosmosil 5C18-AR-II (4.6 × 150 mm) at a flow rate of 1 mL/min with a gradient mobile phase of 60% methanol in water with 0.1% trifluoroacetic acid (TFA) to 80% methanol in water with 0.1% TFA for 20 min.
In vitro stability test in 0.1 M PB solution containing 10% ethanol was performed. The […]
and 97.1 ± 0.9% (mean ± SD for three samples) after incubating at 37 °C for 24 h, […]

O=C([O-])CN1CCN(CC(=O)[O-])CCN(CC(=O)NC(CCCCNC(=O)CCCc2ccc([211At])cc2)C(=O)NCC2CCC(C(=O)NC(Cc3ccc4ccccc4c3)C(=O)NCCCCC(NC(=O)NC(CCC(=O)O)C(=O)O)C(=O)O)CC2)CCN(CC(=O)[O-])CC1.[Ga+3] (stereo not shown) [[^211At]6]
In vivo dehalogenation (radioactivity in stomach and neck) [1]: minimal deiodination or deastatination
Biodistribution of radioactivity: Blood ([1]; i.v., 10 min after injection): 26.93 (0.47) % injected dose per gram
Biodistribution of radioactivity: Bone ([1]; i.v., 10 min after injection): 2.74 (0.53) % injected dose per gram
Biodistribution of radioactivity: Brain ([1]; i.v., 10 min after injection): 0.53 (0.06) % injected dose per gram
Biodistribution of radioactivity: Heart ([1]; i.v., 10 min after injection): 4.66 (0.37) % injected dose per gram
Biodistribution of radioactivity: Kidney ([1]; i.v., 10 min after injection): 5.19 (0.64) % injected dose per gram
Biodistribution of radioactivity: L. Intestine ([1]; i.v., 10 min after injection): 0.78 (0.05) % injected dose per gram
Biodistribution of radioactivity: Liver ([1]; i.v., 10 min after injection): 3.61 (0.05) % injected dose per gram
Biodistribution of radioactivity: Lung ([1]; i.v., 10 min after injection): 15.25 (2.29) % injected dose per gram
Biodistribution of radioactivity: Muscle ([1]; i.v., 10 min after injection): 0.99 (0.14) % injected dose per gram
Biodistribution of radioactivity: Neck ([1]; i.v., 10 min after injection): 0.04 (0.01) % injected dose
Biodistribution of radioactivity: Pancreas ([1]; i.v., 10 min after injection): 2.59 (0.24) % injected dose per gram
Biodistribution of radioactivity: S. Intestine ([1]; i.v., 10 min after injection): 1.42 (0.15) % injected dose per gram
Biodistribution of radioactivity: Spleen ([1]; i.v., 10 min after injection): 2.56 (0.44) % injected dose per gram
Biodistribution of radioactivity: Stomach ([1]; i.v., 10 min after injection): 0.85 (0.07) % injected dose
Biodistribution of radioactivity: Blood ([1]; i.v., 1 h after injection): 17.94 (1.58) % injected dose per gram
Biodistribution of radioactivity: Bone ([1]; i.v., 1 h after injection): 1.92 (0.21) % injected dose per gram
Biodistribution of radioactivity: Brain ([1]; i.v., 1 h after injection): 0.38 (0.12) % injected dose per gram
Biodistribution of radioactivity: Heart ([1]; i.v., 1 h after injection): 4.88 (0.26) % injected dose per gram
Biodistribution of radioactivity: Kidney ([1]; i.v., 1 h after injection): 4.36 (0.53) % injected dose per gram
Biodistribution of radioactivity: L. Intestine ([1]; i.v., 1 h after injection): 0.93 (0.15) % injected dose per gram
Biodistribution of radioactivity: Liver ([1]; i.v., 1 h after injection): 2.54 (0.38) % injected dose per gram
Biodistribution of radioactivity: Lung ([1]; i.v., 1 h after injection): 10.21 (2.55) % injected dose per gram
Biodistribution of radioactivity: Muscle ([1]; i.v., 1 h after injection): 1.25 (0.10) % injected dose per gram
Biodistribution of radioactivity: Neck ([1]; i.v., 1 h after injection): 0.04 (0.01) % injected dose
Biodistribution of radioactivity: Pancreas ([1]; i.v., 1 h after injection): 2.07 (0.45) % injected dose per gram
Biodistribution of radioactivity: S. Intestine ([1]; i.v., 1 h after injection): 1.59 (0.31) % injected dose per gram
Biodistribution of radioactivity: Spleen ([1]; i.v., 1 h after injection): 1.77 (0.11) % injected dose per gram
Biodistribution of radioactivity: Stomach ([1]; i.v., 1 h after injection): 0.84 (0.27) % injected dose
Biodistribution of radioactivity: Blood ([1]; i.v., 4 h after injection): 13.40 (1.08) % injected dose per gram
Biodistribution of radioactivity: Bone ([1]; i.v., 4 h after injection): 1.59 (0.09) % injected dose per gram
Biodistribution of radioactivity: Brain ([1]; i.v., 4 h after injection): 0.32 (0.06) % injected dose per gram
Biodistribution of radioactivity: Heart ([1]; i.v., 4 h after injection): 4.31 (0.39) % injected dose per gram
Biodistribution of radioactivity: Kidney ([1]; i.v., 4 h after injection): 4.44 (0.25) % injected dose per gram
Biodistribution of radioactivity: L. Intestine ([1]; i.v., 4 h after injection): 1.15 (0.35) % injected dose per gram
Biodistribution of radioactivity: Liver ([1]; i.v., 4 h after injection): 1.55 (0.24) % injected dose per gram
Biodistribution of radioactivity: Lung ([1]; i.v., 4 h after injection): 7.81 (1.92) % injected dose per gram
Biodistribution of radioactivity: Muscle ([1]; i.v., 4 h after injection): 1.27 (0.08) % injected dose per gram
Biodistribution of radioactivity: Neck ([1]; i.v., 4 h after injection): 0.04 (0.01) % injected dose
Biodistribution of radioactivity: Pancreas ([1]; i.v., 4 h after injection): 1.76 (0.35) % injected dose per gram
Biodistribution of radioactivity: S. Intestine ([1]; i.v., 4 h after injection): 1.30 (0.19) % injected dose per gram
Biodistribution of radioactivity: Spleen ([1]; i.v., 4 h after injection): 1.60 (0.25) % injected dose per gram
Biodistribution of radioactivity: Stomach ([1]; i.v., 4 h after injection): 0.83 (0.18) % injected dose
Biodistribution of radioactivity: Blood ([1]; i.v., 12 h after injection): 12.23 (1.51) % injected dose per gram
Biodistribution of radioactivity: Bone ([1]; i.v., 12 h after injection): 1.91 (0.32) % injected dose per gram
Biodistribution of radioactivity: Brain ([1]; i.v., 12 h after injection): 0.42 (0.07) % injected dose per gram
Biodistribution of radioactivity: Heart ([1]; i.v., 12 h after injection): 3.83 (0.57) % injected dose per gram
Biodistribution of radioactivity: Kidney ([1]; i.v., 12 h after injection): 5.31 (0.31) % injected dose per gram
Biodistribution of radioactivity: L. Intestine ([1]; i.v., 12 h after injection): 0.79 (0.16) % injected dose per gram
Biodistribution of radioactivity: Liver ([1]; i.v., 12 h after injection): 1.58 (0.12) % injected dose per gram
Biodistribution of radioactivity: Lung ([1]; i.v., 12 h after injection): 7.79 (0.46) % injected dose per gram
Biodistribution of radioactivity: Muscle ([1]; i.v., 12 h after injection): 1.37 (0.10) % injected dose per gram
Biodistribution of radioactivity: Neck ([1]; i.v., 12 h after injection): 0.18 (0.06) % injected dose
Biodistribution of radioactivity: Pancreas ([1]; i.v., 12 h after injection): 1.44 (0.82) % injected dose per gram
Biodistribution of radioactivity: S. Intestine ([1]; i.v., 12 h after injection): 1.06 (0.11) % injected dose per gram
Biodistribution of radioactivity: Spleen ([1]; i.v., 12 h after injection): 1.71 (0.33) % injected dose per gram
Biodistribution of radioactivity: Stomach ([1]; i.v., 12 h after injection): 1.04 (0.11) % injected dose
Biodistribution of radioactivity: Blood ([1]; i.v., 24 h after injection): 10.45 (0.19) % injected dose per gram
Biodistribution of radioactivity: Bone ([1]; i.v., 24 h after injection): 1.56 (0.33) % injected dose per gram
Biodistribution of radioactivity: Brain ([1]; i.v., 24 h after injection): 0.43 (0.14) % injected dose per gram
Biodistribution of radioactivity: Heart ([1]; i.v., 24 h after injection): 4.06 (1.41) % injected dose per gram
Biodistribution of radioactivity: Kidney ([1]; i.v., 24 h after injection): 3.50 (0.24) % injected dose per gram
Biodistribution of radioactivity: L. Intestine ([1]; i.v., 24 h after injection): 0.62 (0.15) % injected dose per gram
Biodistribution of radioactivity: Liver ([1]; i.v., 24 h after injection): 1.43 (0.07) % injected dose per gram
Biodistribution of radioactivity: Lung ([1]; i.v., 24 h after injection): 5.77 (0.84) % injected dose per gram
Biodistribution of radioactivity: Muscle ([1]; i.v., 24 h after injection): 1.28 (0.09) % injected dose per gram
Biodistribution of radioactivity: Neck ([1]; i.v., 24 h after injection): 0.14 (0.06) % injected dose
Biodistribution of radioactivity: Pancreas ([1]; i.v., 24 h after injection): 1.61 (0.22) % injected dose per gram
Biodistribution of radioactivity: S. Intestine ([1]; i.v., 24 h after injection): 0.81 (0.05) % injected dose per gram
Biodistribution of radioactivity: Spleen ([1]; i.v., 24 h after injection): 1.33 (0.43) % injected dose per gram
Biodistribution of radioactivity: Stomach ([1]; i.v., 24 h after injection): 1.31 (0.10) % injected dose
Biodistribution of radioactivity: Feces ([1]; i.v., excreted for 24 h after injection (column not printed safely), Table S2): 2.00 (0.33) % injected dose
Blood retention ([1]; profile resembled that of [125I]5): prolonged blood retention
Effect of excess 2-PMPA on cellular uptake [2]: significantly reduced
Effect of IPBA administration on radioactivity levels in tissues [3]: significantly decreased
Radiochemical purity after incubation (in vitro stability) [4]: 97.1 ± 0.9%
